Measurements as given in ChEMBL document CHEMBL4680119, “Battle tactics against MMP-9; discovery of novel non-hydroxamate MMP-9 inhibitors endowed with PI3K/AKT signaling attenuation and caspase 3/7 activation via Ugi bis-amide synthesis” (Eur J Med Chem, 2020).
The source made the active and inactive calls. No cut-off for these calls is given here.

Tests used:
in vitro = conditions: human, WI38 cells and HepG2 cells
Description: Selectivity index, ratio of IC50 for human WI38 cells to IC50 for human HepG2 cells

MCF7 [1] = experiment: Induction of apoptosis in human MCF-7 cells assessed as late apoptosis by annexinV/propidium iodide staining based by flow cytometry (reference value: 0.01+/- 0.001%); format: functional
Interstitial collagenase = molecular target: T1, Interstitial collagenase (Homo sapiens, UniProt P03956); experiment: Inhibition of MMP-1 (unknown origin) by colorimetric assay
T1 sequence (P03956 whole entry): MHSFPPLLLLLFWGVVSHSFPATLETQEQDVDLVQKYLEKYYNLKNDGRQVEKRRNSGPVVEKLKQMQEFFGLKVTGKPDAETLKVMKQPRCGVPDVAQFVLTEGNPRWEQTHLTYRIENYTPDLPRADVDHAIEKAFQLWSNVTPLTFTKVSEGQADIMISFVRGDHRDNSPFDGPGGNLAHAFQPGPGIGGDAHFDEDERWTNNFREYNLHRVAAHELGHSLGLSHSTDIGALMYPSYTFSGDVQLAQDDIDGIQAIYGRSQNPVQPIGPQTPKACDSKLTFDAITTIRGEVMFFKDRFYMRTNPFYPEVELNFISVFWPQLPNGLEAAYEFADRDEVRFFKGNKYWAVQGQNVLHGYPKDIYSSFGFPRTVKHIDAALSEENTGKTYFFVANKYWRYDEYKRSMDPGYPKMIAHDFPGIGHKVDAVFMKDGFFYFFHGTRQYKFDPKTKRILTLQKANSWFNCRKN

MCF7 [2] = experiment: cells; conditions: Homo sapiens
Description: Anticancer activity against human MCF7 cells assessed as reduction in cell viability by MTT assay

MCF7 [3] = experiment: Induction of apoptosis in human MCF7 cells assessed as cell shrinkage by microscopic analysis; format: functional, cell-based
MCF7 [4] = experiment: Induction of cell morphological changes in human MCF7 cells assessed as loss in cell shape by microscopic analysis; format: functional, cell-based
Collagenase 3 = Collagenase 3 (Homo sapiens, UniProt P45452); experiment: Inhibition of MMP-13 (unknown origin) by colorimetric assay
HepG2 [5] = experiment: Induction of apoptosis in human HepG2 cells assessed as late apoptosis by annexinV/propidium iodide staining based by flow cytometry (reference value: 0.1+/- 0.001%); format: functional
HepG2 [6] = experiment: Inhibition of cell migration in human HepG2 cells incubated for 24 hrs by wound healing assay; format: functional
HepG2 [7] = experiment: Induction of apoptosis in human HepG2 cells assessed as cell shrinkage by microscopic analysis; format: functional, cell-based
[8] = molecular target: Matrix metalloproteinase-9 (Homo sapiens, UniProt P14780); experiment: Inhibition of MMP-9 (unknown origin) by colorimetric assay
[9] = molecular target: 72 kDa type IV collagenase (Homo sapiens, UniProt P08253); experiment: Inhibition of MMP-2 (unknown origin) by colorimetric assay
[10] = Induction of apoptosis in […] cells assessed as late apoptosis by annexinV/propidium iodide staining based by flow cytometry (reference value: 0.015+/- 0.01%); format: functional, Mus musculus
[11] = Induction of apoptosis in […] cells assessed as total apoptosis by annexinV/propidium iodide staining based by flow cytometry (reference value: 0.495+/- 0.01%); format: functional, Mus musculus
HepG2 [12] = experiment: Induction of apoptosis in human HepG2 cells assessed as total apoptosis by annexin/propidium iodide staining based by flow cytometry (reference value: 0.169+/- 0.02%); format: functional
NFS-60 [13] = experiment: Induction of cell morphological changes in […] cells assessed as loss in cell shape by microscopic analysis; format: functional, cell-based; conditions: Mus musculus
MCF7 [14] = experiment: Induction of apoptosis in human MCF-7 cells assessed as early apoptosis by annexinV/propidium iodide staining based by flow cytometry (reference value: 0.47+/- 0.01%); format: functional
[15] = Induction of apoptosis in […] cells assessed as increase in caspase-3/7 activation by flow cytometric analysis; format: functional, Mus musculus
MCF7 [16] = experiment: Induction of apoptosis in human MCF7 cells assessed as increase in caspase-3/7 activation by flow cytometric analysis; format: functional
MCF7 [17] = experiment: Induction of apoptosis in human MCF-7 cells assessed as total apoptosis by annexin V/propidium iodide staining based by flow cytometry (reference value: 0.48+/- 0.01%); format: functional
[18] = Induction of apoptosis in […] cells assessed as early apoptosis by annexinV/propidium iodide staining based by flow cytometry (reference value: 0.02+/- 0.01%); format: functional, Mus musculus
HepG2 [19] = experiment: Induction of apoptosis in human HepG2 cells assessed as early apoptosis by annexinV/propidium iodide staining based by flow cytometry (reference value: 0.78+/- 0.09%); format: functional
HepG2 [20] = experiment: Anticancer activity against human HepG2 cells assessed as reduction in cell viability by MTT assay; format: functional, cell-based
HepG2 [21] = experiment: Induction of apoptosis in human HepG2 cells assessed as increase in caspase-3/7 activation by flow cytometric analysis; format: functional
[22] = Anticancer activity against […] cells assessed as reduction in cell viability by MTT assay; format: functional, cell-based; conditions: Mus musculus
HepG2 [23] = experiment: Induction of cell morphological changes in human HepG2 cells assessed as loss in cell shape by microscopic analysis; format: functional, cell-based
NFS-60 [24] = experiment: Induction of apoptosis in […] cells assessed as cell shrinkage by microscopic analysis; format: functional, cell-based
WI-38 = experiment: Cytotoxicity against human WI-38 cells assessed as reduction in cell viability by MTT assay; format: cell-based; conditions: for IC50: Homo sapiens, WI-38; for EC100: human, wi-38

Chain of 72 kDa type IV collagenase (P08253 whole entry): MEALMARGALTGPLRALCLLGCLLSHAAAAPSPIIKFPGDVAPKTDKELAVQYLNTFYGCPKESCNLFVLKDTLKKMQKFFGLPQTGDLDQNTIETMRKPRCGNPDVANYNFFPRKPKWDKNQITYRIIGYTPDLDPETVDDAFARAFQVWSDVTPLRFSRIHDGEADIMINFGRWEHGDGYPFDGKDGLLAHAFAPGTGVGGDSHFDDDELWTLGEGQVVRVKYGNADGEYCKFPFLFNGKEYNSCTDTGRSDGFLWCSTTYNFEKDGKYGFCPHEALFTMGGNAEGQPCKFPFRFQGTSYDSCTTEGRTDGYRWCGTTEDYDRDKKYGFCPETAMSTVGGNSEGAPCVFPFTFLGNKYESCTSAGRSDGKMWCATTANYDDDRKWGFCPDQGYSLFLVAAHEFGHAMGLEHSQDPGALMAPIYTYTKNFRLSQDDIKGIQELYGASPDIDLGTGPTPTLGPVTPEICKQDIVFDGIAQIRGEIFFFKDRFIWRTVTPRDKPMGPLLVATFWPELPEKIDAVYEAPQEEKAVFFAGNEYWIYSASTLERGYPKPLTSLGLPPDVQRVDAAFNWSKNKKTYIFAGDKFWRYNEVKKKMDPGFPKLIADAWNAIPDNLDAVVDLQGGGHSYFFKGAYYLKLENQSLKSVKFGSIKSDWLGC
Chain of Matrix metalloproteinase-9 (P14780 whole entry): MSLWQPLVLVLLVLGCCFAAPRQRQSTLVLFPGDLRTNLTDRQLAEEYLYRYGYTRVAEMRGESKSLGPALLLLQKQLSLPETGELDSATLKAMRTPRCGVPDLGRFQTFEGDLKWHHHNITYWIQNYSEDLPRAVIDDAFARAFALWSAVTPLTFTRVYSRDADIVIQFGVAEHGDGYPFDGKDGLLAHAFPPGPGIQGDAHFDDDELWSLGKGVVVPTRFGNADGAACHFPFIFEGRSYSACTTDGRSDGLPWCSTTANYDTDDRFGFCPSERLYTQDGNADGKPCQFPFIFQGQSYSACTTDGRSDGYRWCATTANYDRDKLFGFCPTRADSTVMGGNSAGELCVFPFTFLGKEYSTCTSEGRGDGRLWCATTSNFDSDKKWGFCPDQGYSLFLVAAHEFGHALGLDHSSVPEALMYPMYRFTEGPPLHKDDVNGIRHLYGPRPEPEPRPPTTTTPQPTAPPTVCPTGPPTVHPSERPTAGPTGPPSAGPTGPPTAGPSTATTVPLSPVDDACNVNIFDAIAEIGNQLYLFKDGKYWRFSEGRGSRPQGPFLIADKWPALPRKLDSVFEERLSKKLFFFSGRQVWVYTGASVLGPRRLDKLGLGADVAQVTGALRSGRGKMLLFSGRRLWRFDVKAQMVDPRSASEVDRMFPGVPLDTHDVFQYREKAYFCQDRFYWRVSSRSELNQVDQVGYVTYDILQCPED

IC50 (Interstitial collagenase)	IC50 (MCF7 [2])	SMILES	selectivity ratio (in vitro)	Activity (MCF7 [1])	Activity (MCF7 [4])	Activity (HepG2 [5])	Activity [10]	Activity [11]	Activity (HepG2 [12])	Activity (NFS-60 [13])	Activity (MCF7 [14])	Activity [15]	Activity (MCF7 [16])	Activity (MCF7 [17])	Activity [18]	Activity (HepG2 [19])	Activity (HepG2 [21])	IC50 [22]	Activity (HepG2 [23])	EC100 (WI-38)	further results
104 nM	6.9 nM	O=C(Nc1ccc([N+](=O)[O-])cc1)C(c1ccccc1)N(C(=O)c1ccccc1I)c1ccccc1 (stereo unspecified)	11.3	29.82%	Active	55.35%	58.08%	68.07%	69.375%	Active	31.78%	63.86%	64.93%	61.605%	9.99%	14.02%	70.708%	5.5 nM	Active	10.3 nM	Activity (MCF7 [3]): Active; IC50 (Collagenase 3): 280 nM; inhibition (INH) (HepG2 [6]): 59.35%; Activity (HepG2 [7]): Active; IC50 [8]: 4.49 nM; IC50 [9]: 266 nM; IC50 (HepG2 [20]): 3.1 nM; Activity (NFS-60 [24]): Active; IC50 (WI-38): 35.1 nM
47 nM	6.6 nM	O=C(Nc1ccc([N+](=O)[O-])cc1)C(c1ccccc1)N(Cc1ccccc1)C(=O)Cc1ccccc1 (stereo unspecified)	55.1	21.79%	Active	36.1%	39.08%	55.35%	55.19%	Active	27.39%	53.86%	51.928%	49.19%	16.26%	19.08%	59.13%	5.8 nM	Active	93.5 nM	IC50 (Collagenase 3): 295 nM; inhibition (INH) (HepG2 [6]): 71.25%; IC50 [8]: 5.56 nM; IC50 [9]: 221 nM; IC50 (HepG2 [20]): 5.7 nM; IC50 (WI-38): 314 nM
–	–	COc1cccc2c1C(=O)c1c(O)c3c(c(O)c1C2=O)C[C@@](O)(C(=O)CO)C[C@@H]3O[C@H]1C[C@H](N)[C@H](O)[C@H](C)O1 [DOXORUBICIN]	–	20.445%	Active	25.49%	23.215%	34.595%	36.08%	Active	13.53%	45.39%	42.94%	33.974%	11.379%	10.59%	48.09%	13 nM	Active	12.1 nM	–
41 nM	3.6 nM	O=C(Nc1ccc([N+](=O)[O-])cc1)C(c1ccc([N+](=O)[O-])cc1)N(C(=O)c1ccc(C(F)(F)F)cc1)c1ccccc1 (stereo unspecified)	170	50.72%	Active	43.95%	28.33%	67.485%	70.415%	Active	18.28%	62.703%	65.725%	69.005%	39.15%	26.46%	70.745%	3.61 nM	Active	107.4 nM	Activity (MCF7 [3]): Active; IC50 (Collagenase 3): 113 nM; inhibition (INH) (HepG2 [6]): 93.77%; Activity (HepG2 [7]): Active; IC50 [8]: 7.46 nM; IC50 [9]: 139 nM; IC50 (HepG2 [20]): 2.2 nM; Activity (NFS-60 [24]): Active; IC50 (WI-38): 374 nM
